ChEMBL document CHEMBL1156829 (Proc Natl Acad Sci U S A, 2008)

Columns and labels:
[1] = NOVARTIS: Cytotoxicity against human hepatocellular carcinoma cell line (Huh7); assay type: toxicity, cell-based, Huh-7; conditions: Huh7 cells (hepatocellular carcinoma cell line)
[2] = system: Plasmodium falciparum; assay: NOVARTIS: Inhibition of Plasmodium falciparum W2 (drug-resistant) proliferation in erythrocyte-based infection assay; assay type: functional, organism-based; conditions: Plasmodium falciparum, W2; read-out: EC50
[3] = system: Plasmodium falciparum; assay: NOVARTIS: Inhibition of Plasmodium falciparum 3D7 (drug-susceptible) proliferation in erythrocyte-based infection assay; assay type: functional, organism-based; conditions: Plasmodium falciparum, 3D7

## OCC[n+]1c2ccccc2nc2ccc(N3CCOCC3)cc21.[O-][Cl+3]([O-])([O-])[O-]
[1]
  CC50: 35000 nM
[2]
  EC50: 56.4 nM
[3]
  EC50: 243 nM

## CCN(CC)CCCC(C)Nc1cc(C=Cc2ccc([N+](=O)[O-])cc2)nc2cc(OC)ccc12 (stereo unspecified)
[1]
  CC50: 20200 nM
[2]
  EC50: 32.3 nM
[3]
  EC50: 31.6 nM

## O=C(CCc1ccccc1)c1ccccc1OCC(O)CN1CCCCC1 (stereo unspecified)
[1]
  CC50: 87900 nM
[2]
  EC50: 144 nM
[3]
  EC50: 881 nM

## CCCCCCc1cc(O)c2c(c1)OC(C)(C)C1=C2CCN(C)C1
[1]
  CC50: 20600 nM
[2]
  EC50: 31.3 nM
[3]
  EC50: 48.4 nM

## COc1cccc(NC(=O)c2cccc3c(=O)c4c([nH]c23)CCCC4)c1
[1]
  CC50: > 100000 nM
[2]
  EC50: 168 nM
[3]
  EC50: 957 nM

## Cc1cc(C)c2c(c1)c(-c1ccccc1)c(-c1ccccc1)n2CC(O)Cn1cnc(-c2ccccc2)c1-c1ccccc1 (stereo unspecified)
[1]
  CC50: > 100000 nM
[2]
  EC50: 155 nM
[3]
  EC50: 1350 nM

## CC(C)C(=O)NC(Nc1ccc([N+](=O)[O-])cc1)C(Cl)(Cl)Cl (stereo unspecified)
[1]
  CC50: 68300 nM
[2]
  EC50: 104 nM
[3]
  EC50: 195 nM

## CC(=O)O[C@H]1C(=O)[C@@]2(C)C([C@H](OC(=O)c3ccccc3)[C@]3(O)C[C@H](OC(=O)[C@@H](O)[C@@H](NC(=O)c4ccccc4)c4ccccc4)C(C)=C1C3(C)C)[C@]1(OC(C)=O)CO[C@@H]1C[C@@H]2O (stereo partly specified)
[1]
  CC50: > 100000 nM
[2]
  EC50: 152 nM
[3]
  EC50: 658 nM

## Cc1ncc([N+](=O)[O-])n1CCOC(=O)NC(Nc1ccc(Br)cc1)C(Cl)(Cl)Cl (stereo unspecified)
[1]
  CC50: > 100000 nM
[2]
  EC50: 152 nM
[3]
  EC50: 229 nM

## COC(=O)C1=CNC=C(C(=O)OC)C1c1ccc(Cl)c([N+](=O)[O-])c1
[1]
  CC50: > 100000 nM
[2]
  EC50: 165 nM
[3]
  EC50: 135 nM

## O=C(Nc1cc(C(F)(F)F)ccc1N1CCOCC1)C(Cl)(Cl)Cl
[1]
  CC50: 74800 nM
[2]
  EC50: 116 nM
[3]
  EC50: 376 nM

## COc1ccccc1C1CC(c2ccccc2)=NN1C(=O)c1ccccc1 (stereo unspecified)
[1]
  CC50: 67000 nM
[2]
  EC50: 110 nM
[3]
  EC50: 262 nM

## Cc1oc2c(c1C(=O)N1CCC(C)CC1)C(=O)c1ccccc1C2=O
[1]
  CC50: 48300 nM
[2]
  EC50: 79.2 nM
[3]
  EC50: 222 nM

## CCc1ccc(C(Nc2cc(C)ccn2)c2ccc3cccnc3c2O)cc1 (stereo unspecified)
[1]
  CC50: > 100000 nM
[2]
  EC50: 163 nM
[3]
  EC50: 1470 nM

## COc1ccc(C2CC(=O)C3=C(C2)NC(C)=C(C(=O)OC2CCCC2)C3c2ccc(F)cc2)cc1OC (stereo unspecified)
[1]
  CC50: 11600 nM
[2]
  EC50: 19.3 nM
[3]
  EC50: 12.6 nM

## O=C(Cc1ccccc1)N1CCOc2c(cc(-c3csc4ccccc34)cc2OCCc2ccccn2)C1
[1]
  CC50: > 100000 nM
[2]
  EC50: 165 nM
[3]
  EC50: 257 nM

## COC(=O)C1=C(C)NC2=C(C(=O)CC(c3ccc(Cl)cc3)C2)C1c1ccccc1 (stereo unspecified)
[1]
  CC50: > 100000 nM
[2]
  EC50: 152 nM
[3]
  EC50: 342 nM

## Cn1c(C(=O)c2cccc3ccccc23)nc2ccccc21
[1]
  CC50: 21500 nM
[2]
  EC50: 32.6 nM
[3]
  EC50: 6.92 nM

## C=CCSc1nc(N)c2c3c(sc2n1)CN(CCC)CC3
[1]
  CC50: > 100000 nM
[2]
  EC50: 168 nM
[3]
  EC50: 623 nM

## COCC(=O)NCc1ccc(OC2CCN(CC(c3ccccc3)c3ccccc3)CC2)cc1
[1]
  CC50: > 10000 nM
[2]
  EC50: < 16.7 nM
[3]
  EC50: 460 nM

## COCCOC(=O)NCc1ccc(Nc2c(C(C)(C)C)nc3cnccn23)cc1
[1]
  CC50: > 10000 nM
[2]
  EC50: 15.5 nM
[3]
  EC50: 102 nM

## Cc1cc(Cl)c(S(=O)(=O)N2CCSCC2)cc1OCC(=O)NC1CCCCC1
[1]
  CC50: > 100000 nM
[2]
  EC50: 153 nM
[3]
  EC50: 186 nM

## C=CCNC(=S)N1CCc2c([nH]c3ccccc23)C1C(F)(F)F (stereo unspecified)
[1]
  CC50: 70700 nM
[2]
  EC50: 108 nM
[3]
  EC50: 208 nM

## COc1ccc(OC)c(-c2ccc(O)c(CN3CCCC(C)C3)c2)c1 (stereo unspecified)
[1]
  CC50: 61000 nM
[2]
  EC50: 94.5 nM
[3]
  EC50: 131 nM

## CCOc1cc(C2CC(=O)NC3=C2C(=O)CC(c2ccc(OC)c(OC)c2)C3)ccc1O (stereo unspecified)
[1]
  CC50: > 100000 nM
[2]
  EC50: 155 nM
[3]
  EC50: 781 nM

## CCN(CC)CCNc1ccnc2cc3ccccc3cc12
[1]
  CC50: 20300 nM
[2]
  EC50: 31.3 nM
[3]
  EC50: 28.6 nM

## Cc1ccc(C)c(NC(=O)C2CCCN(c3nnc(N4CCCC4=O)s3)C2)c1 (stereo unspecified)
[1]
  CC50: > 100000 nM
[2]
  EC50: 154 nM
[3]
  EC50: > 5750 nM

## Cc1cc(C)c2c(c1)-c1c(ssc1=S)C(C)(C)N2C(=O)COc1nc2ccccc2s1
[1]
  CC50: > 100000 nM
[2]
  EC50: 169 nM
[3]
  EC50: 125 nM

## C#CCNC(=O)c1ccc(OC2CCN(CC(c3ccccc3)c3ccccc3)CC2)c(OC)c1
[1]
  CC50: 55000 nM
[2]
  EC50: 88.3 nM
[3]
  EC50: 207 nM

## CCOC(=O)c1nnn(-c2nonc2N)c1-c1ccc(Cl)cc1
[1]
  CC50: > 100000 nM
[2]
  EC50: 160 nM
[3]
  EC50: 397 nM

## O=C(NCc1ccccc1)c1cnc(NCCC(c2ccccc2)c2ccccc2)nc1NC1CC1
[1]
  CC50: > 10000 nM
[2]
  EC50: < 15.8 nM
[3]
  EC50: > 1160 nM

## Cc1ccc(NC(=O)N(CCN(C)C)Cc2cc3cc4c(cc3[nH]c2=O)OCCO4)cc1
[1]
  CC50: > 100000 nM
[2]
  EC50: 157 nM
[3]
  EC50: 984 nM

## COc1ccc(CCNc2nc(NCCCN3CCCCC3C)ncc2C(=O)NCc2ccccc2)cc1OC (stereo unspecified)
[1]
  CC50: > 10000 nM
[2]
  EC50: < 16.1 nM
[3]
  EC50: 323 nM

## CCOC(=O)C1=C(C)NC2=C(C(=O)C(C(=O)OCC)C(c3cccc(OC)c3)C2)C1c1ccc(OC)c(OC)c1 (stereo unspecified)
[1]
  CC50: > 100000 nM
[2]
  EC50: 167 nM
[3]
  EC50: 376 nM

## CC(C(=O)NCCCN)N(Cc1ccccc1)S(C)(=O)=O (stereo unspecified)
[1]
  CC50: > 10000 nM
[2]
  EC50: 16.2 nM
[3]
  EC50: > 1250 nM

## CC(C)CC(N)C(=O)N1CCn2c(nc(-c3ccccc3)c2Nc2ccc3c(c2)OCO3)C1 (stereo unspecified)
[1]
  CC50: > 79500 nM
[2]
  EC50: 122 nM
[3]
  EC50: 119 nM

## CCOC(=O)C1=C(C)NC(=Cc2cc(C)n(-c3ccc(C)cc3)c2C)C1=O
[1]
  CC50: > 100000 nM
[2]
  EC50: 169 nM
[3]
  EC50: 121 nM

## CCOC(=O)C1CCN(C(c2cc3cc(OC)c(OC)cc3[nH]c2=O)c2nnnn2Cc2ccccc2)CC1 (stereo unspecified)
[1]
  CC50: > 100000 nM
[2]
  EC50: 158 nM
[3]
  EC50: 419 nM

## CCOC(=O)CCC(=O)N(C)CCCNc1ccnc2cc(Cl)ccc12
[1]
  CC50: > 10000 nM
[2]
  EC50: < 15.6 nM
[3]
  EC50: 673 nM

## CCOC(=O)CCCCC(=O)c1[nH]c(=O)[nH]c1Cn1ccnc1
[1]
  CC50: > 100000 nM
[2]
  EC50: 165 nM
[3]
  EC50: 152 nM

## CCN1CCN(Cc2c(O)ccc3c(=O)c(Oc4cccc(C)c4)c(C(F)(F)F)oc23)CC1
[1]
  CC50: > 100000 nM
[2]
  EC50: 161 nM
[3]
  EC50: 1130 nM

## O=C1N(Cc2cc3ccccc3s2)CC2CN(Cc3ccsc3)CCN12 (stereo unspecified)
[1]
  CC50: > 100000 nM
[2]
  EC50: 153 nM
[3]
  EC50: 107 nM

## CC(C)CN(CC(=O)Nc1cc(C(C)(C)C)nn1-c1ccccc1)C(=O)c1cc(Cl)cc(Cl)c1
[1]
  CC50: > 10000 nM
[2]
  EC50: < 16.7 nM
[3]
  EC50: 1230 nM

## COC(=O)[C@@H]1C[C@@H](NC(=O)c2ccc(OC)cc2OC)CN1Cc1ccc(C(F)(F)F)cc1
[1]
  CC50: > 100000 nM
[2]
  EC50: 159 nM
[3]
  EC50: 347 nM

## CN(CCCNc1ccnc2cc(Cl)ccc12)C(=O)c1ccc(-c2ccccc2)cc1
[1]
  CC50: 10000 nM
[2]
  EC50: < 15.6 nM
[3]
  EC50: 326 nM

## CC(=O)Nc1c(NCc2ccccc2)c2ccccc2sc1=O
[1]
  CC50: > 100000 nM
[2]
  EC50: 154 nM
[3]
  EC50: 505 nM

## COc1ccccc1NC(=O)N1CCN(C(=O)c2nc(-c3ccccc3)nc(C)c2C(=O)OC(C)C)CC1C (stereo unspecified)
[1]
  CC50: > 10000 nM
[2]
  EC50: < 16.9 nM
[3]
  EC50: 529 nM

## CCN(CC)CCN1C(=O)c2ccccc2NC1c1ccc(N(C)C)cc1 (stereo unspecified)
[1]
  CC50: > 100000 nM
[2]
  EC50: 157 nM
[3]
  EC50: 285 nM

## COC(=O)C1=CNC=C(C(=O)OC)C1c1ccc(Cl)c(Cl)c1
[1]
  CC50: > 64900 nM
[2]
  EC50: 105 nM
[3]
  EC50: 114 nM

## CCCN1CCN(C(=O)C(=O)Nc2ccc3nc4n(c(=O)c3c2)CCCCC4)CC1
[1]
  CC50: > 100000 nM
[2]
  EC50: 165 nM
[3]
  EC50: 1680 nM

## Cc1cc(C)n(-c2cc(NN=Cc3cc(Br)ccc3O)nc(C)n2)n1
[1]
  CC50: > 100000 nM
[2]
  EC50: 154 nM
[3]
  EC50: 237 nM

## COc1ccccc1NC(=O)N(Cc1ccccc1)C(C)c1nc2ccccc2c(=O)n1-c1cc(C)ccc1OC (stereo unspecified)
[1]
  CC50: > 10000 nM
[2]
  EC50: < 15.6 nM
[3]
  EC50: 344 nM
